Laboratory results: patent US20250163119A1, “COMPOUNDS FOR THE TREATMENT OF DIABETES OR OBESITY” (Eli Lilly and Company, priority 2023, published 2025)
Several values for one entry are separate records, joined by “and”; a condition that tells them apart may be missing. Identical values can stand only once. *1 amine or outer side, *2 acyl side, *3 side chain or, on linkers, in order; H or OH if unused. Where a SMILES comes first, the peptide text is derived from it. Side-chain parts run from the residue outwards. [ ]: non-standard residue; d: D form. The star is where a group is joined. C20 diacid = O=C(O)CCCCCCCCCCCCCCCCCCC(=O)*; γGlu = O=C(O)[C@H](CCC(=O)[*:2])N[*:1]; εLys = N[C@@H](CCCCN[*:1])C(=O)[*:2]; NMeI = CC[C@H](C)[C@H](NC)C(=O)O; αMeL = CC(C)C[C@](C)(N)C(=O)O; AEEA = NCCOCCOCC(=O)O; Aib = CC(C)(N)C(=O)O

Tests used:
[1] = Pharmacokinetics in Sprague Dawley rats, single subcutaneous or intravenous dose (incl. 10, 30, 100 nmol/kg dose response); format: in vivo
[2] = test system: MHC-II presented peptides on human dendritic cells; experiment: MAPPS assay (MHC-Associated Peptide Proteomics); format: cell-based
Method: MAPPS profiles the MHC-II presented peptides on human dendritic cells treated with tested molecules. CD14+ cells, isolated from the PBMCs of normal human donors, were cultured and differentiated into immature DCs by incubation with IL-4 and GM-CSF. On day 4, culture media was replaced with fresh media containing tested molecules. On day 5, LPS was added to transform the cells into mature DCs. On day 6, cells were lysed in RIPA buffer with protease inhibitors. Immunoprecipitation of MHC-II complexes were performed using biotinylated anti-MHC-II antibody coupled to streptavidin beads. The bound complex was eluted and filtered. The isolated MHC-II peptides were analyzed by a mass spectrometer. Peptide identifications were generated by an internal proteomics pipeline using search algorithms with no enzyme and a bovine/human database with test sequences appended to the database. A KNIME workflow was used to process the identification files from the samples. Peptides identified from the test articles were aligned against the parent sequence of the test molecule. The output was used to determine the percentage of donors displaying MHC-II peptides from regions of the test molecule. Polypeptides comprising SEQ ID NOs:54, 49, 50, 29, 41, 45, 1, 22, 25 were tested in the MAPPs assay. […] Depending on the donors, up to three major clusters were observed, each slightly shifted from the others, altogether spanning residues 1-33.

[3] = Pharmacokinetics in Yucatan mini-pigs, single subcutaneous or intravenous dose; format: in vivo
Method: Plasma concentrations of compounds were determined by LC/MS methods. For each assay, the compound and an internal standard (IS), were extracted from 100% mouse, rat, pig, or monkey plasma (70 μL) using Isopropanol-Methanol. Two distinct layers were formed upon centrifugation with the compound and the IS located in the supernatant layer. An aliquot of the supernatant (150 μL) was transferred to a Waters Sirocco Protein Precipitation Plate. The supernatant was eluted using a positive pressure manifold. The supernatant was mixed with 100-2 Water-Formic acid (400 μL) in a pretreated Sep-Pak tC18 SPE plate and eluted to waste. The peptide and IS were eluted with Acetonitrile-Formic acid (100 μL) in 2 steps (50 μL each step). The elution (40 μL) from SPE plate was mixed with diluent solution (1.875 μL 5× invitrosol and 3.125 μL 1% formic acid in water, 80 μL). A final sample (10 μl) was loaded onto a Xselect CSH C18 IS column (3.5 μm 2.1×20 mm). The column effluent was directed into a Thermo Fisher Scientific Orbitrap (Exploris 240) mass spectrometer for detection and quantitation.
Male Yucatan mini-pigs were administered a single subcutaneous dose or intravenous dose (19 or 99 nmol/kg) of compound in 40 mM Tris-HCl 5% D-mannitol (pH 8) at a volume of 0.01 or 0.05 mL/kg. Blood was collected from each animal at 0.083 (IV only), 0.5, 3, 6, 24, 48, 72, 96, 168, 240, 336, 408, and 504 hours postdose for pharmacokinetic characterization.

[4] = male, Sprague Dawley, rat, plasma, iv, 196 nmol/kg, single intravenous dose 196 nmol/kg, individual animal
[5] = male, Sprague Dawley, rat, plasma, iv, 196 nmol/kg, single intravenous dose 196 nmol/kg, mean
[6] = single intravenous dose 196 nmol/kg, male Sprague Dawley rats, individual animal
[7] = single subcutaneous dose 196 nmol/kg, male Sprague Dawley rats, individual animal
[8] = Yucatan mini-pig, minipig, plasma, sc, male Yucatan pigs, single subcutaneous dose 19 nmol/kg, Mean, read-out: AUC0-inf
[9] = Yucatan mini-pig, minipig, plasma, sc, male Yucatan pigs, single subcutaneous dose 19 nmol/kg, Mean, read-out: Cmax
[10] = male Yucatan pigs, single subcutaneous dose 19 nmol/kg, individual animal
[11] = male, Yucatan mini-pig, minipig, plasma, iv, 19 nmol/kg, single intravenous dose 19 nmol/kg, individual animal
[12] = male, Yucatan mini-pig, minipig, plasma, iv, 19 nmol/kg, single intravenous dose 19 nmol/kg, mean
[13] = male, Yucatan mini-pig, minipig, plasma, sc, 19 nmol/kg, single subcutaneous dose 19 nmol/kg, Mean
[14] = male, Yucatan mini-pig, minipig, plasma, sc, 19 nmol/kg, single subcutaneous dose 19 nmol/kg, Mean, read-out: CL/F (converted)
[15] = male, Yucatan mini-pig, minipig, plasma, sc, 19 nmol/kg, single subcutaneous dose 19 nmol/kg, Mean, read-out: Tmax
[16] = male, Yucatan mini-pig, minipig, plasma, sc, 19 nmol/kg, single subcutaneous dose 19 nmol/kg, individual animal
[17] = minipig, plasma, single intravenous dose 19 nmol/kg, male Yucatan pigs, mean, read-out: AUC0-inf
[18] = minipig, plasma, single intravenous dose 19 nmol/kg, male Yucatan pigs, mean, read-out: C0
[19] = single intravenous dose 19 nmol/kg, male Yucatan pigs, individual animal

CC[C@H](C)[C@H](NC)C(=O)N[C@H](C(=O)N[C@H](C(=O)N[C@@H](CO)C(=O)N[C@@H](CC(C)C)C(=O)N[C@@H](CC(=O)O)C(=O)N[C@H](C(=O)N1CCC[C@H]1C(=O)N[C@H](C(=O)NCC(=O)N[C@@](C)(CC(C)C)C(=O)N[C@@H](CC(C)C)C(=O)N[C@@H](CCC(N)=O)C(=O)N[C@@H](CCCCN)C(=O)N[C@@H](CC(C)C)C(=O)N[C@H](C(=O)N[C@@H](CCC(=O)O)C(=O)N[C@@H](CCC(N)=O)C(=O)N[C@@H](CCC(=O)O)C(=O)N[C@@H](CCCCN)C(=O)N[C@@H](CCC(N)=O)C(=O)N[C@@H](CCC(=O)O)C(=O)N[C@@H](CCCCN)C(=O)N[C@@H](CCC(=O)O)C(=O)N[C@@H](CCCCN)C(=O)N[C@@H](CCC(N)=O)C(=O)N[C@@H](CCC(N)=O)C(=O)N[C@@H](C)C(=O)N[C@@H](CCCCNC(=O)COCCOCCNC(=O)COCCOCCNC(=O)CC[C@H](NC(=O)CCCCCCCCCCCCCCCCCCC(=O)O)C(=O)O)C(=O)N[C@@H](CCC(=O)O)C(=O)N[C@@H](CC(N)=O)C(=O)N[C@H](C(=O)N[C@@H](CCC(=O)O)C(=O)N[C@H](C(=O)N[C@@H](CC(C)C)C(=O)N[C@@H](C)C(=O)N[C@@H](CCC(N)=O)C(=O)N[C@H](C(N)=O)C(C)C)[C@@H](C)CC)[C@@H](C)O)[C@@H](C)CC)[C@@H](C)CC)C(C)C)[C@@H](C)O)C(C)C [SEQ ID NO: 49, (NMeI) VTSLDVPIG αMeL LQKLIEQEKQEKEKQQAK((2-[2-(2-Amino-ethoxy)-ethoxy]-acetyl)2-γE-CO-(CH2)18-CO2H)ENTEILAQV-NH2] (H-[NMeI]VTSLDVPIG[αMeL]LQKLIEQEKQEKEKQQAK([AEEA-AEEA-γGlu-C20 diacid])ENTEILAQV-NH2)
clearance [1, 4]: 113 mL/day/kg | half-life [1, 4]: 17.8 h | clearance [1, 5]: 99.6 mL/day/kg | half-life [1, 5]: 20.4 h | half-life ([1]; male, Sprague Dawley, rat, plasma, sc, 196 nmol/kg, single subcutaneous dose 196 nmol/kg, individual animal): 19.1 h | CL/F ([1]; male, Sprague Dawley, rat, plasma, sc, 196 nmol/kg, single subcutaneous dose 196 nmol/kg, individual animal, read-out: CL/F (converted)): 276 mL/day/kg | half-life ([1]; male, Sprague Dawley, rat, plasma, sc, 196 nmol/kg, single subcutaneous dose 196 nmol/kg, mean): 18.4 h | CL/F ([1]; male, Sprague Dawley, rat, plasma, sc, 196 nmol/kg, single subcutaneous dose 196 nmol/kg, mean, read-out: CL/F (converted)): 254 mL/day/kg | Tmax ([1]; male, Sprague Dawley, rat, plasma, sc, 196 nmol/kg, single subcutaneous dose 196 nmol/kg, mean, read-out: Tmax): 18 h | AUC0-inf ([1]; rat, plasma, sc, single subcutaneous dose 196 nmol/kg, male Sprague Dawley rats, mean, read-out: AUC0-inf): 18.9 µM·h | Cmax ([1]; rat, plasma, sc, single subcutaneous dose 196 nmol/kg, male Sprague Dawley rats, mean, read-out: Cmax): 394 nM | AUC0-inf ([1]; rat, plasma, single intravenous dose 196 nmol/kg, male Sprague Dawley rats, mean, read-out: AUC0-inf): 47.7 µM·h | C0 ([1]; rat, plasma, single intravenous dose 196 nmol/kg, male Sprague Dawley rats, mean, read-out: C0): 2840 nM | AUC0-inf [1, 6]: 41.5 µM·h and 53.1 µM·h and 48.4 µM·h | C0 [1, 6]: 2790 nM and 2610 nM and 3110 nM | CL [1, 6]: 88.6 mL/day/kg and 97.2 mL/day/kg | T1/2 [1, 6]: 21.7 h and 21.6 h | AUC0-inf [1, 7]: 17.1 µM·h and 22.4 µM·h and 17.3 µM·h | CL/F [1, 7]: 210 mL/day/kg and 274 mL/day/kg | Cmax [1, 7]: 340 nM and 474 nM and 367 nM | T1/2 [1, 7]: 16.0 h and 20.2 h | Tmax [1, 7]: 24 h and 6 h | MAPPS Assay >10 donors with diverse MHC ([2]; donors displaying MHC-II peptides / donors tested): 6/26 | peptides displayed on MHC-II complexes ([2]; human dendritic cells from normal donors): at least one peptide cluster on MHC-II complexes in a subset of donors | immunogenicity compared with SEQ ID NO:54 ([2]; in the MAPPs assay and/or the T cell proliferation assay): substantial improvements in immunogenicity over a compound comprising SEQ ID NO:54 | MAPPS Assay >10 donors with diverse MHC ([2]; percentage of donors displaying MHC-II peptides): 23%

Ac-PPPIVTS[αMeL]DVPT[Aib][αMeL]LQKLLEQERAEKARQQAK([γGlu-AEEA-εLys-C20 diacid])EAAEILAQV-NH2 [SEQ ID NO: 48, Ac-PPPIVTS αMeL DVPT Aib αMeL LQKLLEQERAEKARQQAK(γE-(2-[2-(2-Amino-ethoxy)-ethoxy]-acetyl)-ϵK-CO-(CH2)18-CO2H)EAAEILAQV-NH2]
AUC0-inf [3, 8]: 32.5 µM·h | Cmax [3, 9]: 149 nM | AUC0-inf [3, 10]: 29.3 µM·h and 35.6 µM·h | CL/F [3, 10]: 13.6 mL/day/kg | Cmax [3, 10]: 140 nM and 157 nM | T1/2 [3, 10]: 66.8 h | Tmax [3, 10]: 48 h and 6.0 h | clearance [3, 11]: 13.9 mL/day/kg | half-life [3, 11]: 86.7 h | clearance [3, 12]: 12.5 mL/day/kg | half-life [3, 12]: 88 h | half-life [3, 13]: 68.5 h | CL/F [3, 14]: 14.6 mL/day/kg | Tmax [3, 15]: 27 h | half-life [3, 16]: 70.1 h | CL/F ([3]; male, Yucatan mini-pig, minipig, plasma, sc, 19 nmol/kg, single subcutaneous dose 19 nmol/kg, individual animal, read-out: CL/F (converted)): 15.7 mL/day/kg | AUC0-inf [3, 17]: 36.9 µM·h | C0 [3, 18]: 943 nM | AUC0-inf [3, 19]: 32.5 µM·h and 41.2 µM·h | C0 [3, 19]: 899 nM and 987 nM | CL [3, 19]: 11 mL/day/kg | T1/2 [3, 19]: 89.2 h

Ac-GSPSIVTS[αMeL]DVPT[Aib][αMeL]LQKLLEQERAEKARQQAK([γGlu-AEEA-εLys-C20 diacid])EAAEILAQV-NH2 [SEQ ID NO: 2, Ac-GSPSIVTS αMeL DVPT Aib αMeL LQKLLEQERAEKARQQAK(γE-(2-[2-(2-Amino-ethoxy)-ethoxy]-acetyl)-ϵK-CO-(CH2)18-CO2H)EAAEILAQV-NH2]
AUC0-inf [3, 8]: 18.1 µM·h | Cmax [3, 9]: 107 nM | AUC0-inf [3, 10]: 24.4 µM·h and 11.7 µM·h | CL/F [3, 10]: 18.9 mL/day/kg and 39.1 mL/day/kg | Cmax [3, 10]: 154 nM and 60.4 nM | T1/2 [3, 10]: 90.8 h | Tmax [3, 10]: 6 h and 96 h | clearance [3, 11]: 15.6 mL/day/kg | half-life [3, 11]: 95.4 h | clearance [3, 12]: 14.6 mL/day/kg | half-life [3, 12]: 85.3 h | half-life [3, 13]: 80.8 h | CL/F [3, 14]: 29 mL/day/kg | Tmax [3, 15]: 51 h | half-life [3, 16]: 70.7 h | AUC0-inf [3, 17]: 30.9 µM·h | C0 [3, 18]: 694 nM | AUC0-inf [3, 19]: 28.9 µM·h and 32.8 µM·h | C0 [3, 19]: 809 nM and 578 nM | CL [3, 19]: 13.7 mL/day/kg | T1/2 [3, 19]: 75.1 h
